pIC50: −log10 of the molar value. Where a name gives a salt, the structure may show the parent alone. Read-outs that look alike come from different tables or passages of the source.

In series [1] the test system is PDE IV isolated and purified from guinea pig eosinophils. Kind of series: PDE IV inhibitory activity test. In kind it is biochemical. As to conditions: hydrolysis of cAMP by enzyme preparation from guinea pig eosinophils; read-out: 50% Inhibitory Concentration. The procedure:
The PDE IV inhibitory activity test was carried out according to a method using cosinophils prepared from the abdomen of guinea pig (Souness, J. E. et al., Biochem. Pharmacol. vol. 42, p. 937 (1991)). That is, a homogenizing buffer (10 ml, components: 20 mM Tris-HCl buffer (pH 7.5); 2 mM magnesium chloride; 1 mM dithiothreitol, 5 mM ethylenediamine tetraacetate disodium; 250 mM sucrose; 20 μM p-tosyl-l-lysine-chloromethylketone; 10 μg/ml Leupeptine) was added to 5×10^7 cells, and the mixture was centrifuged. To the residue was added a solubilizing buffer (10 ml, sodium deoxycholate (final concentration: 0.5%) and sodium chloride (final concentration: 100 mM) were added to the above homogenizing buffer), and the mixture was centrifuged again. The supernatant was subjected to ultrafiltration using Molcut-II (manufactured by Japan Millipore Limited), and the fraction on the membrane was collected by adding a homogenizing buffer (10 ml) to give an enzyme preparation. Inhibitory activity against the enzyme was determined by comparing the hydrolysis rates of a substrate, cAMP (manufactured by Nacalai Tesque Inc.), by the above enzyme fraction between in the test compound-treated group and the vehicle group.

Series [2] deals with bronchoconstriction of guinea pig induced by the antigen. Kind of series: Inhibitory effect on antigen-induced bronchoconstriction (Konzett-Roessler method). Format: in vivo. As to conditions: sensitized guinea pigs; for inhibition in vivo at 3 mg/kg / inhibition in vivo at 10 mg/kg / inhibition in vivo at 30 mg/kg: Cavia porcellus, po, read-out: Inhibitory Rate; for inhibition in vivo at 3 mg/kg: 3 mg/kg orally; for inhibition in vivo at 30 mg/kg: 30 mg/kg orally. The method, then:
Hartley male guinea pigs were actively sensitized by intraperitoneally administering an ovalbumin (manufacture by Sigma). Four weeks thereafter, the animals were anesthetized with Nembutal (50 mg/kg, i.p., manufactured by Dainabot Co., Ltd.), and a cannual was inserted at the airway, and the bronchoconstriction response of the animals under artificial respiration was observed. The response of the airway was measured by Konzett-Roessler method (Naunyn-Schmiedebergs, Aech. Exp. Pathol. Pharmacol., vol. 195, p. 71 (1940)). A test compound (the compounds of Examples of the present invention as listed in Table 3) was orally administered to the animals one hour prior to the administration of the antigen (i.e., ovalbumin, 0.05%/physiological saline solution, i.v.). Only the compound of Example 31 was orally administered 2 hours prior to the administration of the antigene. The inhibitory rate (%) caused by the test compound was calculated by comparing the bronchoconstriction response of the test compound-treated group with that of the control group to which only a solvent was administered.

Series [3] is described as follows: acute toxicity test. As to conditions: dose of 2000 mg/kg. In kind it is in vivo. The text has this:
Besides, the present compounds (I) of the present invention are low toxic.

Where [4] appears, read: 2 hours prior to antigen (ovalbumin i.v.).
Where [5] appears, read: 1 h, 10 mg/kg orally, one hour prior to antigen (ovalbumin i.v.).
Setting [6] is: 1 h, one hour prior to antigen (ovalbumin i.v.).

Regarding `CS(=O)(=O)Nc1cnccc1CCCOc1cccnc1Oc1cccc(Cl)c1` [Example 70, 2-(3-chlorophenoxy)-3-[3-(3-methylsulfonylaminopyridin-4-yl)propoxy]pyridine], the pIC50 in series [1] was 6.82.
As to `COc1ccc([C@]2(C#N)CC[C@@H](C(=O)O)CC2)cc1OC1CCCC1` [SB-207499, reference compound], in series [1], the pIC50 is 7.96.
Consider `Oc1cnccc1CCCOc1cccnc1Oc1cccc(Cl)c1` [Example 31, 2-(3-chlorophenoxy)-3-[3-(3-hydroxypyridin-4-yl)-propoxy]pyridine], for which, in series [2] (setting [4]), the inhibition in vivo at 3 mg/kg is 39% and the inhibition in vivo at 30 mg/kg stood at 69%. Further, the inhibition in vivo at 10 mg/kg in series [2] (10 mg/kg orally, 2 hours prior to antigen (ovalbumin i.v.)) worked out at 66%. The “toxicity in acute toxicity test” value in series [3] is “never showed any toxicity”. Moreover, the pIC50 in series [1] is 7.80.
Take `Oc1cnccc1CCCOc1cccnc1Oc1cccc(F)c1` [Example 44, 2-(3-fluorophenoxy)-3-[3-(3-hydroxypyridin-4-yl)-propoxy]pyridine]: the inhibition in vivo at 10 mg/kg in series [2] (setting [5]) was 55%. Also, in series [1], the pIC50 was 7.46.
For the compound `Oc1cncc(Cl)c1CCCOc1cccnc1Oc1cccc(Cl)c1` [Example 73, 2-(3-chlorophenoxy)-3-[3-(3-chloro-5-hydroxypyridin-4-yl)propoxy]pyridine], the pIC50 in series [1] is 6.70.
Consider `CC(=O)Oc1cnccc1CCCOc1cccnc1Oc1cccc(Cl)c1` [Example 54, 2-(3-chlorophenoxy)-3-[3-(3-acetoxypyridin-4-yl)propoxy]-pyridine.monofumarate], for which, in series [2] (setting [5]), the inhibition in vivo at 10 mg/kg is 33%. Further, in series [1], the pIC50 is 7.20.
With `Oc1cnccc1CCCOc1cccnc1Nc1cccc(Br)c1` [Example 46, 2-(3-bromoanilino)-3-[3-(3-hydroxypyridin-4-yl)propoxy]-pyridine], in series [2] (setting [5]), the inhibition in vivo at 10 mg/kg was 45.7%.
On to `c1ccc(Oc2ncccc2OCCCc2ccncc2)cc1` [Example 37, 2-phenoxy-3-[3-(pyridin-4-yl)propoxy]pyridine], for which the melting point (usually the temperature of the solid-liquid transition) lay within 97 to 98 °C. In series [2] (setting [5]), the inhibition in vivo at 10 mg/kg is 49.6%. For the same compound, the pIC50 in series [1] was 7.57.
`c1ccc(Sc2ncccc2OCCCc2ccncc2)cc1` [Example 15]: the melting point is 41 to 43 °C. Also, in series [1], the pIC50 was 8.01.
Take `COC(=O)c1cccc(Oc2ncccc2OCCCc2ccncc2)c1` [Example 53, 2-(3-methoxycarbonylphenoxy)-3-[3-(pyridin-4-yl)-propoxy]pyridine]: in series [1], the pIC50 is 7.63.
Turning to `Oc1cnccc1CCCOc1cccnc1Oc1cccc(Br)c1` [Example 32, 2-(3-bromophenoxy)-3-[3-(3-hydroxypyridin-4-yl)-propoxy]pyridine], in series [2] (setting [6]), the inhibition in vivo at 3 mg/kg was 34% and the inhibition in vivo at 30 mg/kg turned out to be 72%. Moreover, the inhibition in vivo at 10 mg/kg in series [2] (setting [5]) was determined as 70%. Also, the pIC50 in series [1] was 7.85.
`COc1cccc(Sc2ncccc2OCCCc2ccncc2)c1` [Example 14] displayed a melting point of 84 to 85 °C. In addition, the pIC50 in series [1] was 7.82.
As for `Oc1cnccc1CCCOc1cccnc1Sc1cccc(Br)c1` [Example 26, 2-(3-bromophenylthio)-3-[3-(3-hydroxypyridin-4-yl)-propoxy]pyridine], the inhibition in vivo at 10 mg/kg in series [2] (setting [5]) was 48.3%.
Regarding `Nc1cncc(O)c1CCCOc1cccnc1Oc1cccc(Cl)c1` [Example 69, 2-(3-chlorophenoxy)-3-[3-(3-amino-5-hydroxypyridin-4-yl)propoxy]pyridine.1.0 fumarate], the pIC50 in series [1] was 7.39.
Same read-out and setting: the figure for `CC(=O)Oc1cnccc1CCCOc1cccnc1Oc1ccccc1` [Example 56, 2-phenoxy-3-[3-(3-acetoxypyridin-4-yl)propoxy]pyridine] is 8.25.
As for `Brc1cccc(Oc2ncccc2OCCCc2ccncc2)c1` [Example 35, 2-(3-bromophenoxy)-3-[3-(pyridin-4-yl)propoxy]pyridine], the inhibition in vivo at 10 mg/kg in series [2] (setting [5]) was 49.3%. Also, the pIC50 in series [1] was 7.59.
As to `N#Cc1cccc(Oc2ncccc2OCCCc2ccncc2O)c1` [Example 28, 2-(3-cyanophenoxy)-3-[3-(3-hydroxypyridin-4-yl)-propoxy]pyridine], the inhibition in vivo at 10 mg/kg in series [2] (setting [5]) stood at 54%.
In the case of `CCOC(=O)c1cccc(Oc2ncccc2OCCCc2ccncc2O)c1.CCOC(=O)c1cccc(Oc2ncccc2OCCCc2ccncc2O)c1.O=C(O)/C=C/C(=O)O` [Example 29, 2-(3-ethoxycarbonylphenoxy)-3-[3-(3-hydroxypyridin-4-yl)propoxy]pyridine.0.5 fumarate], the “Inhibitory Rate” value in series [2] (10 mg/kg orally, one hour prior to antigen (ovalbumin i.v.)) turned out to be 42%.
Compound `Oc1cccc(Sc2ncccc2OCCCc2ccncc2)c1` [Example 13, 2-(3-hydroxyphenylthio)-3-[3-(pyridin-4-yl)propoxy]pyridine] came in with a melting point of 158 to 159 °C.
The compound `Brc1cccc(Sc2ncccc2OCCCc2ccncc2)c1` [Example 7, 2-(3-bromophenylthio)-3-[3-(pyridin-4-yl)propoxy]pyridine] gave a melting point of 89 to 90 °C. For the same compound, in series [2] (setting [5]), the inhibition in vivo at 10 mg/kg was 77.2%. Further, the pIC50 in series [1] is 7.47.
For `COc1ccc(C2CNC(=O)C2)cc1OC1CCCC1` (stereo not shown) [Rolipram, reference compound], in series [1], the pIC50 is 7.55.
Take `COc1ccc(C(=O)Nc2c(Cl)cncc2Cl)cc1OC1CCCC1` [RP-73401, reference compound]: the pIC50 in series [1] was 9.74.
In the case of `CC(=O)Oc1cnccc1CCCOc1cccnc1Cc1cccc(Br)c1` [Example 57, 2-(3-bromobenzyl)-3-[3-(3-acetoxypyridin-4-yl)propoxy]-pyridine.1.5 fumarate], the pIC50 in series [1] is 7.64.
`N#Cc1cccc(Oc2ncccc2OCCCc2ccncc2)c1` [Example 41, 2-(3-Cyanophenoxy)-3-[3-(pyridin-4-yl)propoxy]pyridine] displayed a melting point of 112 to 113 °C. In series [1], the pIC50 was 7.41.
As to `Fc1cccc(Oc2ncccc2OCCCc2ccncc2)c1` [Example 39, 2-(3-fluorophenoxy)-3-[3-(pyridin-4-yl)propoxy]pyridine], the melting point lay within 117 to 118 °C. Further, the inhibition in vivo at 10 mg/kg in series [2] (setting [5]) stood at 66.3%. For the same compound, the pIC50 in series [1] was 7.69.
`Brc1cccc(Oc2ncccc2OCCCc2cccnc2)c1` [Example 40] came in with a melting point of 46 to 48 °C. Further, the inhibition in vivo at 10 mg/kg in series [2] (setting [5]) is 45.3%. Moreover, the pIC50 in series [1] was 7.74.
As for `Brc1cccc(Sc2ncccc2OCCCc2cccnc2)c1` [Example 3, 2-(3-bromophenylthio)-3-[3-(pyridin-3-yl)propoxy]-pyridine], in series [2] (setting [5]), the inhibition in vivo at 10 mg/kg turned out to be 59.9%. In addition, the pIC50 in series [1] was 7.45.
The like results for `Oc1cnccc1CCCOc1cccnc1Oc1ccccc1` [Example 30, 2-phenoxy-3-[3-(3-hydroxypyridin-4-yl)propoxy]pyridine] were, in that order, 46.5% and 7.96.
Regarding `Oc1cncc(CCCOc2cccnc2Oc2cccc(Cl)c2)c1` [Example 65, 2-(3-chlorophenoxy)-3-[3-(5-hydroxypyridin-3-yl)-propoxy]pyridine], the pIC50 in series [1] is 7.07.

For the origin of these results see US6683186B2, “2,3-Disubstituted pyridine derivative, process for the preparation thereof, pharmaceutical composition containing the same, and intermediate therefor” (Dainippon Pharmaceutical Company, Limited, priority 1998, dated 2004).
